The text below walks through data of US9814761B2, “Compositions, methods and assays comprising amylin or amlyin analogs for abeta-peptide mediated disorders” (TRUSTEES OF BOSTON UNIVERSITY, priority 2012, dated 2017).

“Also recorded” adds a separate entry of the source.

In data set [1] the test system is serum Aβ1-40 and Aβ1-42. The data set is described as follows: amylin challenge test: i.p. injection, serum Aβ1-40 and Aβ1-42 by ELISA, control (wild type) mice. Format: in vivo. How it is done:
(§1) TgAPP2576 mice (n=5) and control mice (n=5) were used. Intraperitoneal injection of amylin (20 mg/kg) was performed, and blood was drawn and collected at pre-injection, after injection at 5 minutes, 1 hr and 24 hrs. Serum Aβ1-40 and Aβ1-42 were measured using ELISA assay. The results of serum Aβ1-40 and Aβ1-42 for each individual mouse are shown. This experiment has been repeated twice for each mouse and similar results were obtained.
(§2) As shown at FIGS. 3A-3E, amylin injection removes Aβ from the brain into blood in APP transgenic mice. Both the Tg2576 and wild type (WT) mice were used for the amylin challenge test. FIGS. 3A-3B. Amylin (20 mg/kg) was intraperitoneally injected (i.p), and blood was drawn and collected at the time points of pre-injection (the control n=7; Tg2576 n=11), after injection 5 minutes (the control n=7; Tg2576 n=6), 1 hr (the control n=7; Tg2576 n=10) and 24 hrs (the control n=7; Tg2576 n=11). Serum Aβ1-40 and Aβ1-42 were measured by using the ELISA assays. FIGS. 3C-3E. The levels of serum Aβ1-40 and Aβ1-42 at pre-injection of amylin were treated as 1 s, and the relative fold increase after amylin injection at each time point was shown and compared with the pre-injection level by using two-way ANOVA. ***p<0.01; **p<0.05 and *p<0.10.
(§3) FIGS. 6A-6D depict amylin injection and serum Aβ in mice. Both control mice (wild type) and Tg2576 mice were used for the amylin injection test. Amylin (20 mcg/kg) was intraperitoneally injected (i.p), and blood was drawn at the following time points: at baseline or pre-injection (controls n=7; Tg2576 n=11), at 5 minutes (controls n=7; Tg2576 n=6), at 1 hr (controls n=7; Tg2576 n=10) and at 24 hrs (controls n=7; Tg2576 n=11) post injection. Serum Aβ1-40 and Aβ1-42 were measured by using the ELISA assays. The levels of serum Aβ1-40 and Aβ1-42 at pre-injection of amylin were treated as 1 s, and the relative fold increase after amylin injection at each time point was shown and compared with the pre-injection level by using a two-way ANOVA. ***p<0.01; **p<0.05 and *p<0.10.
FIG. 7 depicts results of i.p injection of pramlintide, an analog of amylin, into one Tg2576 mouse (A1) and two wild type mice (N1 and N2) and comparison of their serum Aβ40 level before and after the injection.
(§4) Validation: We used the APP transgenic mice (Tg2576) to conduct amylin challenge test. Tg2576 mice have Aβ deposits in the brain like the AD pathology. After intraperitoneal injection of amylin (20 mg/kg), Tg2576 mice (n=5) presented with the increase of serum Aβ40 and Aβ42 at 5 minutes, 1 hr and 24 hrs compared to the pre-injection levels of serum Aβ40 and Aβ42.
A general note: In an ELISA, binding on a coated surface is turned into a signal by an enzyme label.

The subject of data set [2] is serum Aβ1-40 and Aβ1-42. The data set is described as follows: amylin challenge test, serum Aβ, 5XFAD mice. Format: in vivo. From the text:
The higher the levels of Aβ and the number of amyloid plaques in the brain, the higher fold of serum Aβ was increased after the peripheral amylin challenge.

The test system of data set [3] is 5XFAD mice. As to the kind of experiment: Y Maze Spontaneous Alternation test after long-term amylin treatment. Format: in vivo. The conditions noted are these: 5XFAD mice aged 2 months; amylin 20 mcg/kg i.p. daily for 10 weeks vs. saline; n=8. As to the method:
Since amylin can enhance the removal of Aβ out of the brain into blood, it was tested whether amylin and its analogs can be a treatment for AD. Thus, we treated 5XFAD mice aged 2 months old with i.p injection of amylin (20 mcg/kg) vs. saline (n=8 in each group) daily for 10 weeks, and then conducted Y Maze Spontaneous Alternation test for measuring the willingness of mice to explore new environments.

In data set [4] the test system is mouse models. The data set is described as follows: daily dosing in mouse models, memory functions. Format: in vivo, mice.
For data set [5], the system named is Aβ monomers and Aβ oligomers in the brain. The data set is described as follows: Aβ in the brain after amylin treatment, western blots and ELISA assays. In kind it is in vivo. The note with it: 5XFAD mice; amylin treatment compared to saline. From the text: Changes of Aβ in the brain were examined after the amylin treatment in 5XFAD mice using both western blots and ELISA assays. […] Thus, without wishing to be bound or limited by theory, the benefits of memory improvement from amylin treatment is mediated, in part, by 1) removing Aβ from the AD brain into blood and 2) reducing the amount of Aβ oligomers in the brain.

The conditions of data set [6]: Banks and Kastin, 1998; cited from earlier work.
For data set [7], the system named is Aβ1-40 and Aβ1-42 in blood. The data set is described as follows: amylin challenge test, blood Aβ, APP Dutch mutation mouse line. In kind it is in vivo, APP mouse line which carries the APP Dutch mutation.
Data set [8] concerns 5XFAD mice. As to the kind of experiment: Y-water Maze test after long-term amylin treatment. Format: in vivo. How it is done:
5XFAD mice were treated with either i.p amylin or saline for 8 weeks followed by Y-water maze test. The average latency of recognizing the object after the training was calculated for each group (n=10) and statistical significance for the comparison is shown.

Data set [9] deals with serum Aβ1-40 and Aβ1-42. The data set is described as follows: amylin challenge test: i.p. injection, serum Aβ1-40 and Aβ1-42 by ELISA, Tg2576 mice. Format: in vivo. The note with it: 5 minutes. How it is done:
as §1, §2, §3, §4

[10] abbreviates: control mice (n=5), amylin 20 mg/kg intraperitoneal.
Where [11] appears, read: control mice (wild type), single amylin injection 20 mcg/kg i.p.
[12] abbreviates: Tg2576 mice (n=5), amylin 20 mg/kg intraperitoneal, 1 hr and 24 hrs.
Setting [13] is: Tg2576 mice, single amylin injection 20 mcg/kg i.p., 1 hr, 24 hrs.

Take “amylin (KCNTATCATQRLANFLVHSSNNFGAILSSTNVGSNTY; listed as Homo sapiens)”: the “serum Aβ40 compared to the pre-injection level” value is on record as “did not have these surges” in data set [1] (setting [10]); “none of the control mice (wild type), had surges” in data set [1] (setting [11]); “increase” in [9] (setting [12]); “surges” in data set [9] (setting [13]). The “serum Aβ42 compared to the pre-injection level” value in data set [1] (setting [10]) is on record as “did not have these surges”; in [1] (setting [11]) it was “none of the control mice (wild type), had surges”; in data set [9] (setting [12]), “increase”; in data set [9] (setting [13]), “surges”. For the same substance, the Aβ1-42 in serum result in data set [2] (5XFAD mice aged 3 months, i.p. injection of amylin) is “increased level”. Further, the “serum Aβ levels after peripheral amylin injection” value in data set [2] (different aged 5XFAD mice) is “increase of serum Aβ levels reflecting the amounts of Aβ in the brains”. Also, in data set [3], the “% alternation rate” value was “significantly increased”. In addition, the “memory functions / cognition” value in [4] is given as “increased memory functions”. Also, the “amount of Aβ monomers in the brain” value in data set [5] was “did not change”. Further, the “amount of Aβ oligomers in the brain” value in [5] is listed as “significantly reduced”. Also, in [6], the “passage through the brain blood barrier (BBB) into the brain” value was “freely passes through the brain blood barrier (BBB)”. Further, the Aβ1-40 in blood entry in [7] is reported as “surge”. Besides, the “Y-water maze, average latency of recognizing the object after the training” value in [8] (5XFAD mice, i.p. amylin or saline for 8 weeks, n=10) is given as “improves; also recorded: improved memory impairment”. In data set [8] (APP transgenic mice, long-term amylin treatment vs placebo), the “time for acquisition (escaping onto the platform)” value is listed as “significantly reduced”. Also, in [8] (APP transgenic mice, long-term amylin treatment vs placebo, at 30 minutes and at 3 days, p<0.02), the “memory retention: time to find the platform” value is recorded as “shortening the time to find the platform”.
